# From ChEMBL document CHEMBL5154787 (J Med Chem, 2022)
# Legend:
# [1] = Metabolic stability in dog microsomes assessed as half life incubated at 0.5 uM for 10 mins in presence of NADPH by LC-MS/MS analysis; type: ADME, Canis lupus familiaris, Liver, Microsome
# [2] = Permeability of compound at pH 5.5 incubated for 4 hrs by PAMPA assay; type: ADME; conditions: read-out: permeability
# [3] = Plasma concentration in CCI induced tactile allodynia in Sprague-Dawley rat at 3 mg/kg, po measured at 7.5 hrs post dose; type: ADME, organism-based
# Cytochrome P450 3A4 [4] = target: T1, Cytochrome P450 3A4 (Homo sapiens, UniProt P08684); test: Inhibition of CYP3A4 (unknown origin) incubated for 10 mins in presence of NADPH by LC-MS/MS analysis; type: ADME
# [5] = target: Neuronal acetylcholine receptor subunit alpha-7 (Homo sapiens, UniProt P36544); test: Inhibition of nicotinic acetylcholine receptor alpha 7 (unknown origin); type: toxicity
# [6] = Drug concentration in CCI induced tactile allodynia in Sprague-Dawley rat spinal cord at 3 mg/kg, po measured at 7.5 hrs post dose; type: ADME, organism-based; conditions: read-out: Ct
# Cytochrome P450 3A4 [7] = target: T1, Cytochrome P450 3A4; test: Time dependent inhibition of […] (unknown origin) using MDZ as substrate incubated for up to 30 mins in presence of NADPH by LC-MS/MS analysis; type: ADME
# Cytochrome P450 3A4 [8] = target: T1, Cytochrome P450 3A4; test: Time dependent inhibition of […] (unknown origin) using BFC as substrate incubated for 5 mins in presence of NADPH by LC-MS/MS analysis; type: ADME
# [9] = Metabolic stability in mouse liver microsomes assessed as half life incubated at 0.5 uM for 10 mins in presence of NADPH by LC-MS/MS analysis; type: ADME, Microsome; conditions: for half-life at 0.5 µM: liver microsomes
# [10] = target: AP2-associated protein kinase 1 (Homo sapiens, UniProt Q2M2I8); test: Inhibition of full length human AAK1 expressed in HEK293F cells assessed as suppression of AP2 phosphorylation measured after 3 hrs by Western blot analysis based cellular assay; type: cell-based
# Cytochrome P450 3A4 [11] = target: T1, Cytochrome P450 3A4; test: Time dependent inhibition of […] (unknown origin) using TST as substrate incubated for up to 30 mins in presence of NADPH by LC-MS/MS analysis; type: ADME
# Cytochrome P450 2D6 = Cytochrome P450 2D6 (Homo sapiens, UniProt P10635); test: Inhibition of CYP2D6 (unknown origin) incubated for 10 mins in presence of NADPH by LC-MS/MS analysis; type: ADME
# Cytochrome P450 2C19 = Cytochrome P450 2C19 (Homo sapiens, UniProt P33261); test: Inhibition of CYP2C19 (unknown origin) incubated for 10 mins in presence of NADPH by LC-MS/MS analysis; type: ADME
# [12] = Metabolic stability in human liver microsomes assessed as parent compound remaining at 0.5 uM incubated for 10 mins in presence of NADPH by LC-MS/MS analysis; type: ADME, Microsome; conditions: read-out: Stability
# [13] = Permeability of compound at pH 7.4 incubated for 4 hrs by PAMPA assay; type: ADME; conditions: read-out: permeability
# [14] = target: BMP-2-inducible protein kinase (Homo sapiens, UniProt Q9NSY1); test: Inhibition of BIKE (unknown origin)
# [15] = Volume of distribution at steady state in rat at 3 mg/kg,po or 2 mg/kg,iv; type: ADME, organism-based; conditions: in vivo
# [16] = Metabolic stability in rat liver microsomes assessed as parent compound remaining at 0.5 uM incubated for 10 mins in presence of NADPH by LC-MS/MS analysis; type: ADME, Microsome; conditions: read-out: Stability
# [17] = Protein binding in mouse plasma assessed as unbound fraction measured after 3 hrs by LC/MS/MS analysis; type: ADME, cell-free
# Cytochrome P450 3A4 [18] = target: T1, Cytochrome P450 3A4; test: Inhibition of […] (unknown origin) using BFC as substrate incubated for 10 mins in presence of NADPH by LC-MS/MS analysis; type: ADME
# Cytochrome P450 3A4 [19] = target: T1, Cytochrome P450 3A4; test: Time dependent inhibition of […] (unknown origin) using BFC as substrate incubated for 30 mins in presence of NADPH by LC-MS/MS analysis; type: ADME
# Rattus norvegicus = test: Analgesic activity in CCI induced tactile allodynia in Sprague-Dawley rat assessed as reduction in pain response at 3 mg/kg, po by Hargreaves test relative to control; type: functional; design: scale not given: the % may be the effect or the level left
# [20] = Inhibition of sodium channel voltage-sensing domain (unknown origin); design: species or system Homo sapiens
# Cytochrome P450 2B6 = target: T2, Cytochrome P450 2B6 (Homo sapiens, UniProt P20813); test: Inhibition of CYP2B6 (unknown origin) incubated for 10 mins in presence of NADPH by LC-MS/MS analysis; type: ADME
# T2 sequence (P20813 whole entry): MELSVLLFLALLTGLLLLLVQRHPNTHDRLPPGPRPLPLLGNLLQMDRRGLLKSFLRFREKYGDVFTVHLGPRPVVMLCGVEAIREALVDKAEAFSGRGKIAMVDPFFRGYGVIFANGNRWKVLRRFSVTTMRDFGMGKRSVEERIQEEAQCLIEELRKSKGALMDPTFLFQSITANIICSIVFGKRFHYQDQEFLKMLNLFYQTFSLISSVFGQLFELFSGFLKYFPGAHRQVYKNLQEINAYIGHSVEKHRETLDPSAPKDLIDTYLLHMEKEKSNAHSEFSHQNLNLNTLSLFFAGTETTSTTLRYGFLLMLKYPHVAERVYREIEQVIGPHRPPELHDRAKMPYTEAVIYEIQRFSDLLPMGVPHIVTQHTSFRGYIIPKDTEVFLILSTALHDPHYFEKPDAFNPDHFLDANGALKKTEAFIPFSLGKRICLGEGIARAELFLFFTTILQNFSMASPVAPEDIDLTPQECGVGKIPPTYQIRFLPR
# [21] = target: Sodium-dependent noradrenaline transporter (Homo sapiens, UniProt P23975); test: Inhibition of NET (unknown origin); type: toxicity
# [22] = Ratio of drug concentration in spinal cord to plasma in CCI induced tactile allodynia in Sprague-Dawley rat at 3 mg/kg, po measured at 7.5 hrs post dose; type: ADME, organism-based
# [23] = Ratio of drug concentration in spinal cord to plasma in STZ-induced diabetic peripheral neuropathic mechanical allodynia in overnight fasted Sprague-Dawley rat at 1 mg/kg, po measured at 5.75 hrs post dose; type: ADME, organism-based
# [24] = target: MAP kinase-interacting serine/threonine-protein kinase 1 (Homo sapiens, UniProt Q9BUB5); test: Inhibition of MNK1 (unknown origin)
# [25] = Genotoxicity in Salmonella typhimurium by Ames test; type: toxicity; conditions: salmonella enterica subsp. enterica serovar typhimurium
# [26] = Drug concentration in STZ-induced diabetic peripheral neuropathic mechanical allodynia in overnight fasted Sprague-Dawley rat spinal cord at 1 mg/kg, po measured at 5.75 hrs post dose; type: ADME, organism-based; conditions: read-out: Ct
# [27] = Genotoxicity in chinese hamster CHO cells in presence of metabolic activation system at 169 uM by IVMN assay; type: toxicity, cell-based, Cricetulus griseus
# [28] = Plasma concentration in STZ-induced diabetic peripheral neuropathic mechanical allodynia in overnight fasted Sprague-Dawley rat at 1 mg/kg, po measured at 5.75 hrs post dose; type: ADME, organism-based
# [29] = target: Myosin light chain kinase 2, skeletal/cardiac muscle (Homo sapiens, UniProt Q9H1R3); test: Inhibition of MYLK2 (unknown origin)
# [30] = target: Voltage-gated inwardly rectifying potassium channel KCNH2 (Homo sapiens, UniProt Q12809); test: Inhibition of human ERG by patch clamp assay; type: toxicity
# [31] = target: Solute carrier organic anion transporter family member 1B3 (Homo sapiens, UniProt Q9NPD5); test: Inhibition of OATP1B3 (unknown origin)
# Chain of AP2-associated protein kinase 1 (Q2M2I8 whole entry): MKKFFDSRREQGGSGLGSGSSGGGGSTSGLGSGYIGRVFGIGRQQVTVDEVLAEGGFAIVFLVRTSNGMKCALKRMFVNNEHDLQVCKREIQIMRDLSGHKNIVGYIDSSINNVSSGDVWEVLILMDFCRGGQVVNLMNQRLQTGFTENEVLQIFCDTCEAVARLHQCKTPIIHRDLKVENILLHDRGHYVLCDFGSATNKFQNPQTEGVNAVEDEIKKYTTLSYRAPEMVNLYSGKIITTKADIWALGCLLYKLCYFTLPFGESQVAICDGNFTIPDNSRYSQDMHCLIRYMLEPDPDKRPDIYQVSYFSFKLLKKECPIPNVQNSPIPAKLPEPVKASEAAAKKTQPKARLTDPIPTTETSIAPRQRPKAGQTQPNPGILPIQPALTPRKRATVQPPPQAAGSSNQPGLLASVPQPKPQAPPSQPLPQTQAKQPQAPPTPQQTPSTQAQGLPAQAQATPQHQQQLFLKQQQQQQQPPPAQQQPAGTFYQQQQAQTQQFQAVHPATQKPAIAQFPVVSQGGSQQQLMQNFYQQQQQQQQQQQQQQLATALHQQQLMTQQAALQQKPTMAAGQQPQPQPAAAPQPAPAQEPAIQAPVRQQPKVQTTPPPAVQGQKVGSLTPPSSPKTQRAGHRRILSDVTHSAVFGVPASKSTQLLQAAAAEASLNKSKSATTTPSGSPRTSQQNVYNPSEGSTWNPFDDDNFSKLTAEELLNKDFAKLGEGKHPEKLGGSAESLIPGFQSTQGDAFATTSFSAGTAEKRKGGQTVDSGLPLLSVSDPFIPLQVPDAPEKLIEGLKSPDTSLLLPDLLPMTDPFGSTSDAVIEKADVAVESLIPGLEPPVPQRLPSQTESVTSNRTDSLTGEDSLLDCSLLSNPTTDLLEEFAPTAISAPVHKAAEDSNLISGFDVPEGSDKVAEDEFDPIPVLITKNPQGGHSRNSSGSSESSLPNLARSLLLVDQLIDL
# Chain of BMP-2-inducible protein kinase (Q9NSY1 whole entry): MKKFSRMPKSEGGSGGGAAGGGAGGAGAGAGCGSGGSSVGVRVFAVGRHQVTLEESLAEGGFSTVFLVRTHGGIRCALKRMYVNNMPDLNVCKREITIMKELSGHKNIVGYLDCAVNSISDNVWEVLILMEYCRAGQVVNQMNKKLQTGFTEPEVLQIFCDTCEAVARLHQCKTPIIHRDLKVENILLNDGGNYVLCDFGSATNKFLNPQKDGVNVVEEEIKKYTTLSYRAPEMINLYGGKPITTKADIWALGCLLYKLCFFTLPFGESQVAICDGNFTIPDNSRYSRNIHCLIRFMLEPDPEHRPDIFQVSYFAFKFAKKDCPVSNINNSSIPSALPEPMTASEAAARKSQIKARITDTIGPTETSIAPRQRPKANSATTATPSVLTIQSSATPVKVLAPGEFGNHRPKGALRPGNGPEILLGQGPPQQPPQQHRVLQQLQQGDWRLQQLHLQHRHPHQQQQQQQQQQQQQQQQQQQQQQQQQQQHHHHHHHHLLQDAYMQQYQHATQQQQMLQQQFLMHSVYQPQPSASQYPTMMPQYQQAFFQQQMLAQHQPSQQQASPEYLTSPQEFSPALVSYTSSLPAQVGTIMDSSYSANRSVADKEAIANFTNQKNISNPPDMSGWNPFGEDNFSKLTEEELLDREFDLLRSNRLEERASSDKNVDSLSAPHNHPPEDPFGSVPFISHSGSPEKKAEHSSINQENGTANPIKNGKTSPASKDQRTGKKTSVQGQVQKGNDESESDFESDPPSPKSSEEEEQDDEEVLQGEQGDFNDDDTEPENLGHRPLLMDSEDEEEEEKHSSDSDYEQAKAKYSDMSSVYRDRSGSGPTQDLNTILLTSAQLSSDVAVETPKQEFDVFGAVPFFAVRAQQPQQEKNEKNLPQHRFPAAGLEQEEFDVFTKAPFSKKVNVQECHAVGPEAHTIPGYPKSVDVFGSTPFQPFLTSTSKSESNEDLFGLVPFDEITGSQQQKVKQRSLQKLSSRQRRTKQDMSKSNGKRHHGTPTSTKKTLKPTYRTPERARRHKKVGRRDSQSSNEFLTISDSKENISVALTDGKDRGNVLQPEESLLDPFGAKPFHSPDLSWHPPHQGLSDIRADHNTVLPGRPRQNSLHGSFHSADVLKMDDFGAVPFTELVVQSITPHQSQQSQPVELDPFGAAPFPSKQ
# Chain of Cytochrome P450 2D6 (P10635 whole entry): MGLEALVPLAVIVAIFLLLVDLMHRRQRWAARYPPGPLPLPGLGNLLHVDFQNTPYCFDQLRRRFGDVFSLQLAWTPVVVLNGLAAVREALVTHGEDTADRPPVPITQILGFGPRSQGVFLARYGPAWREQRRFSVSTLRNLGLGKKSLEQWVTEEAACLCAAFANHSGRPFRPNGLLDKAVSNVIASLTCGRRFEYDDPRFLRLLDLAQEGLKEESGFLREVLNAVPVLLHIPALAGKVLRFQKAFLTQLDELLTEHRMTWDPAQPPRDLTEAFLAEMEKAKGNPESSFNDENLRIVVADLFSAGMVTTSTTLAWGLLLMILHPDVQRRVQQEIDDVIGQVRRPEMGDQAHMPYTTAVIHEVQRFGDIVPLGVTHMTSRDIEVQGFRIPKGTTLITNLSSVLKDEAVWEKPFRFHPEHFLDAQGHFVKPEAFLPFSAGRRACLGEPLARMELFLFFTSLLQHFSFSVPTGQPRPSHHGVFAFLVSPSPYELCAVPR
# Chain of Cytochrome P450 2C19 (P33261 whole entry): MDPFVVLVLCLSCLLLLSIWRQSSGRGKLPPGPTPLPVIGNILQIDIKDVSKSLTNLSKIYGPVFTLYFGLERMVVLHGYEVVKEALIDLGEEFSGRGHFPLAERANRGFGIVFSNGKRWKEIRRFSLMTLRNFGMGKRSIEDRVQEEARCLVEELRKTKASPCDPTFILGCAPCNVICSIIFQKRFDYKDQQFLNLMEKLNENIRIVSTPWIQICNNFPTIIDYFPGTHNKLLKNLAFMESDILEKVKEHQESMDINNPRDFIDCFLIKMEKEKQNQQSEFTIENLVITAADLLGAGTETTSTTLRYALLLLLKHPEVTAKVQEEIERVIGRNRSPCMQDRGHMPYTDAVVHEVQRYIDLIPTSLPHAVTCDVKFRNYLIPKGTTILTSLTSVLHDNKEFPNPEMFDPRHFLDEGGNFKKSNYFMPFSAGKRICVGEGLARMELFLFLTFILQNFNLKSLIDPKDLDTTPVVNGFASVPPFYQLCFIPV
# T1 sequence (P08684 whole entry): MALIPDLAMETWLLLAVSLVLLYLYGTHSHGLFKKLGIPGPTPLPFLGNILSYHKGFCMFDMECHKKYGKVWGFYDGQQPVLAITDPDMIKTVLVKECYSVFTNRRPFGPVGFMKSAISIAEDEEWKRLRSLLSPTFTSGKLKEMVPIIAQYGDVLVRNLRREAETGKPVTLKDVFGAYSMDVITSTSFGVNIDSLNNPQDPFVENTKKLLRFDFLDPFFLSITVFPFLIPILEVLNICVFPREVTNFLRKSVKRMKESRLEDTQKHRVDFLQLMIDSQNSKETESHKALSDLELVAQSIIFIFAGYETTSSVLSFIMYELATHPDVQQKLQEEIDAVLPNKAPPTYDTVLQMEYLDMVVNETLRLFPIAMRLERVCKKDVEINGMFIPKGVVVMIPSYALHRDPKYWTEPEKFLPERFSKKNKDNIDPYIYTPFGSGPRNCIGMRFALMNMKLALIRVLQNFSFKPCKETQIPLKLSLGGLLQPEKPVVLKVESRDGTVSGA
# Chain of Sodium-dependent noradrenaline transporter (P23975 whole entry): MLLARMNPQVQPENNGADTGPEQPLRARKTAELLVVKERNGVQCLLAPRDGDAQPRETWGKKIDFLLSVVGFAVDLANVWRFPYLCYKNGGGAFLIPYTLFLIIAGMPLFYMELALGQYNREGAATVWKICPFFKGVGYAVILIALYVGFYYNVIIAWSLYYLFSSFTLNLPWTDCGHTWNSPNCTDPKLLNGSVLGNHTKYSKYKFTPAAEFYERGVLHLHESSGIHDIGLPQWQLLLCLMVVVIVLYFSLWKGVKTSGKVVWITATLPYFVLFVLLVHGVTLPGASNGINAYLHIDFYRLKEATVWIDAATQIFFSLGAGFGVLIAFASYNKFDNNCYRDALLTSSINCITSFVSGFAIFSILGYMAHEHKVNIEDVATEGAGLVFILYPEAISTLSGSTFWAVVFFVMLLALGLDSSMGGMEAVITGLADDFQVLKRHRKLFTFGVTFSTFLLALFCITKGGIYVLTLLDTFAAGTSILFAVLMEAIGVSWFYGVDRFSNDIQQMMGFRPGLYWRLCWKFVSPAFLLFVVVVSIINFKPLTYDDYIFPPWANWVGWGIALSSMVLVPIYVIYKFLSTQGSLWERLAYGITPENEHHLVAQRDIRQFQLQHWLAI
# Chain of Neuronal acetylcholine receptor subunit alpha-7 (P36544 whole entry): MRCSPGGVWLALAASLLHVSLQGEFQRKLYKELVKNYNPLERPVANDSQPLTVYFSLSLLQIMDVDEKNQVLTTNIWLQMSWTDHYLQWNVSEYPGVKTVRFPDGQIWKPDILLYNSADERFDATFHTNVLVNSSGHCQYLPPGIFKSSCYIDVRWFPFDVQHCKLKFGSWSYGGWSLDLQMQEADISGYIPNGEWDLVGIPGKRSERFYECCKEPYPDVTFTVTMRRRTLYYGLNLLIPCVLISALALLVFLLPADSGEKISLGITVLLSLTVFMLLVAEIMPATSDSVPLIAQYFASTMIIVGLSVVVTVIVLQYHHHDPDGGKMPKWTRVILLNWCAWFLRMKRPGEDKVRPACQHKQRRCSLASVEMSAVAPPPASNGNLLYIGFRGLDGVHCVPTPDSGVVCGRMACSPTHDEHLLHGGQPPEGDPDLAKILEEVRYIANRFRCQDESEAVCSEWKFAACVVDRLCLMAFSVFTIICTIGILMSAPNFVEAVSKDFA
half-life at 0.5 µM [1],Papp at 4 h [2],concentration at 7.5 h [3],IC50 (Cytochrome P450 3A4 [4]),concentration at 7.5 h [6],IC50 (Cytochrome P450 3A4 [7]),IC50 (Cytochrome P450 3A4 [8]),IC50 [10],IC50 (Cytochrome P450 3A4 [11]),IC50 (Cytochrome P450 2D6),IC50 (Cytochrome P450 2C19),"remaining at 10 min, 0.5 µM [12]",Papp at 4 h [13],IC50 [14],Vdss [15],"remaining at 10 min, 0.5 µM [16]",IC50 (Cytochrome P450 3A4 [18]),IC50 [20],IC50 (Cytochrome P450 2B6),Compound,IC50 [5],also measured
> 120 min,56.5 ×10⁻⁶ cm/s,140 nM,> 20 µM,720 nM,> 40 µM,> 20 µM,3.4 nM,> 40 µM,> 20 µM,> 20 µM,92%,69.7 ×10⁻⁶ cm/s,10 nM,30.9 L/kg,83%,> 20 µM,11.5 µM,> 20 µM,COC(=O)Nc1cc(-c2cnc(OC[C@@](C)(N)CC(C)C)c(C)c2)ccn1,4.5 µM,"t1/2 ([9]; microsomes, 10 min, 0.5 µM): 54 min; fraction unbound at 3 h [17]: 0.049; IC50 (Cytochrome P450 3A4 [19]): > 20 µM; Activity (Rattus norvegicus): 60%; IC50 [21]: 5 µM; Kp at 7.5 h [22]: 5.1"
101 min,82.4 ×10⁻⁶ cm/s,500 nM,> 20 µM,4400 nM,–,–,2.4 nM,–,> 20 µM,> 20 µM,95%,86.4 ×10⁻⁶ cm/s,90 nM,16.3 L/kg,95%,> 20 µM,39 µM,> 20 µM,COC(=O)Nc1cc(-c2ccc(OC[C@@](C)(N)CC(C)C)c(C)n2)ccn1,–,Kp at 5.75 h [23]: 2.7; IC50 [24]: 190 nM; Activity [25]: Non-Toxic; half-life at 0.5 µM [9]: 92 min; concentration at 5.75 h [26]: 213 nM; Activity [27]: Non-Toxic; concentration at 5.75 h [28]: 80 nM; IC50 [29]: 1800 nM; IC50 [30]: 5.9 µM; Activity (Rattus norvegicus): 80%; Kp at 7.5 h [22]: 8.8
26 min,40.6 ×10⁻⁶ cm/s,–,> 20 µM,–,> 40 µM,> 20 µM,0.5 nM,> 40 µM,> 20 µM,> 20 µM,89%,45.8 ×10⁻⁶ cm/s,180 nM,41.3 L/kg,85%,> 20 µM,7.4 µM,> 20 µM,CC(C)C[C@](C)(N)COc1cnc(-c2ccnc(C(F)F)c2)cc1C(F)F,4 µM,Kp at 5.75 h [23]: 2.7; IC50 [31]: > 50 µM; IC50 [24]: 260 nM; Activity [25]: Non-Toxic; half-life at 0.5 µM [9]: > 120 min; concentration at 5.75 h [26]: 213 nM; concentration at 5.75 h [28]: 80 nM; fraction unbound at 3 h [17]: 0.065; IC50 [29]: 450 nM; IC50 [30]: 1.3 µM; IC50 (Cytochrome P450 3A4 [19]): > 20 µM; IC50 [21]: 1.8 µM
